Assay results reported in patent US12116597B2, “Autophagy as a therapeutic target for intracranial aneurysm” (THE BOARD OF REGENTS OF THE UNIVERSITY OF TEXAS SYSTEM, priority 2022, dated 2024).

Test system: Thsd1-deficient zebrafish
Experiment: Intracranial hemorrhage incidence in thsd1-MO zebrafish embryos treated with autophagy inhibitors
Format: in vivo
Settings: thsd1-MO injected zebrafish embryos; added to embryo water at 1 dpf for 24 hours; 3-MA 10 mM, wortmannin 50 nM, verteporfin 1 uM; FIG. 11
Experimental: Anti-sense morpholinos against thsd1, atg5 or talin was injected into one-cell stage zebrafish singly or in combination to silence the gene accordingly. At day 2 to day 3, embryos will be checked under regular optical microscope. Embryos with intracranial hemorrhages will be counted and imaged by Olympus microscope.
To test the hypothesis that autophagy inhibition could treat intracranial hemorrhage in-vivo 80-120 different zebrafish animals genetically engineered as described in Table 5 were treated with three distinct autophagy inhibitors, namely, 3-MA, wortmannin, or verteporfin. Control (DMSO) or other known autophagy inhibitors including 3-MA (10 mM), wortmannin (50 nM), and verteporfin (1 uM) were added to embryo water at 1 dpf for 24 hours. All embryos were injected by thsd1-MO and the hemorrhagic incidence was counted under microscope. For each injection, around 80-120 embryos were injected. *p<0.05, **p<0.01, n.s. means not significant.
After significant effort in contacting individuals and sequencing the families shown in FIG. 1A, the present disclosure first identified THSD1 as a gene associated with sub-cranial hemorrhage. In specific cases, a single codon substitution was identified as responsible for the phenotype L5F, R460W, E466G, G600E, P639L, T653I, or S775P. […]

Molecule: Verteporfin
- intracranial hemorrhage (hemorrhagic incidence counted under microscope): rescued intracranial hemorrhage

Molecule: Cn1cnc(N)c2ncnc1-2 [3-MA, 3-Methyladenine]
- intracranial hemorrhage (hemorrhagic incidence counted under microscope): rescued intracranial hemorrhage
